Data published in PubChem BioAssay (NCI).
“And” between values parts separate entries of the source, which are not always exact repeats. Equal entries are not always repeated.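 Each compound was tested at five concentrations against cells in 96-well plates for 48 hours. At the GI50, growth is halved. TGI marks complete inhibition of growth.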

System: MDA-MB-468 breast
Experiment: DTP human tumour cell line panel, 48 h

Row | SMILES | GI50 | TGI
1 | CNC(=O)c1cc(N2CCc3cc(NC(=O)Nc4ccc(N5CCOCC5)c(C(F)(F)F)c4)ccc32)ccn1 | 5.22 µM | > 33.3 µM
2 | O=C(CCl)N1c2ccccc2Sc2c1ccc1ccccc21 | 2.09 µM | 3.95 µM
3 | CN(C)C(=S)N=Nc1c(O)[nH]c2ccccc12 | 0.482 µM | 3.46 µM
4 | CC(=C(c1ccc(OCCN(C)C)cc1)c1ccc(OCCN(C)C)cc1)c1ccc(Cl)cc1 | 0.827 µM | 3.24 µM
5 | Cn1ccnc1C(=O)/C=C/c1ccc(CC(=O)Nc2ccccc2)cc1 | 1.71 µM | 7.11 µM
6 | Fc1cccc(COc2ccc(Nc3ncnc4cc(-c5ccc[nH]5)sc34)cc2Cl)c1 | 0.0446 µM | 0.306 µM
7 | C[C@H]1[C@H](C)CC[C@]2(C(=O)O)CC[C@]3(C)C(=CC[C@@H]4[C@@]5(C)C/C(=C/c6cccnc6)[C@H](O)C(C)(C)[C@@H]5CC[C@]43C)[C@H]12 | 19.8 µM | 80.1 µM
8 | CCCCCCCCCCCC[n+]1ccc(CCCCCCCCC)cc1 | 0.253 µM | 0.833 µM
9 | COc1cc(Nc2nc(N[C@H]3CCCC[C@@H]3N)nc3cc[nH]c(=O)c23)cc(OC)c1 | 0.26 µM | 0.854 µM
10 | COc1cc[nH]c1/C=C1\C(=O)Nc2ccc(F)c(I)c21 | > 5.39 µM | > 25 µM
11 | Fc1ccc2[nH]c3c(NCCCN4CCOCC4)ncnc3c2c1 | 20.4 µM | > 100 µM
12 | CC(=O)O[C@@H]1CC2C(C)(C)CCCC2(C)C2=C1C(=O)C(C(C)C)=CC2=O (stereo not given in full) | 1.54 µM | 3.81 µM
13 | OCc1ccc(-c2nn(Cc3ccccc3)c3ccccc23)o1 | 0.11 µM | 0.287 µM
14 | Cc1nc2sc(C(=O)Nc3ccccc3)c(N)c2cc1C(=O)/C=C/c1ccccc1 | 1.73 µM | 3.82 µM
15 | CC[C@H](CC#N)OC(=O)N[C@@H](C)c1cccc(NC(=O)Nc2ccc(-c3cnco3)c(OC)c2)c1 | 0.531 µM | 18.2 µM
16 | C#CC[C@@H]1C[C@]2(C)[C@H]3CC=C4[C@H]5CC(C)(C)CC[C@]5(C(=O)NCCCCN)CC[C@@]4(C)[C@]3(C)CC[C@H]2C(C)(C)[C@H]1OC(C)=O | 1.71 µM | 3.27 µM
17 | C[C@@H]1COCCN1c1cc(C2(S(C)(=N)=O)CC2)nc(-c2ccnc3[nH]ccc23)n1 (stereo not given in full) | 3.92 µM | 25 µM
18 | Oc1ccc(CCCCCCc2ccc(O)cc2)cc1 | 12.7 µM | 32.9 µM
19 | CN(C)c1ccc2cc(-c3ccccc3F)c(N)nc2c1 | 0.542 µM | 12.2 µM
20 | CC(=O)Oc1ccccc1C(=O)Nc1cc(C(C)C)ccc1C | 2.49 µM | 8.38 µM

Row | SMILES | GI50 | TGI
21 | c1cnc2[nH]cc(-c3csc(-c4cn(CCCCN5CCOCC5)c5ccccc45)n3)c2c1 | 2.07 µM | 3.99 µM
22 | O=C1/C(=C/c2ccc(O)cc2)COc2ccc(-c3ccccc3)cc21 | 3.32 µM | 11.4 µM
23 | CN(CCOc1ccc(C#N)cc1)CCOc1ccc(C#N)cc1 | 27.5 µM | > 100 µM
24 | C[C@@H]1CN(CC(=O)N2CC(C)(C)c3nc(CO)c(Cc4ccc(F)cc4)cc32)[C@@H](CN2CCOC[C@H]2C)CN1 | 10.9 µM | 27.9 µM
25 | c1n[nH]cc1-c1nc2ccc3[nH]ncc3c2c2c1CCCC2 | 1.36 µM | 3.6 µM
26 | C=C1CC[C@@H]2[C@](C)(COC(C)=O)[C@H](OC(C)=O)CC[C@@]2(C)[C@@H]1CC(Nc1ccc(S(=O)(=O)Nc2nccc(C)n2)cc1)C1=CCOC1=O (stereo not given in full) | 1.99 µM | 4.31 µM
27 | CC(CNC(Cc1ccccc1)c1ccccc1)NC(Cc1ccccc1)c1ccccc1 (stereo not given) | 1.74 µM | 3.67 µM
28 | COc1ccc(-c2cn(-c3ccccc3)c(-c3ccccc3)n2)cc1OC | 4.9 µM | 21.9 µM
29 | CSc1ccc(/C=C2\N=C(c3ccccc3)N(c3nc4ccc(Sc5ccccc5)cc4[nH]3)C2=O)cc1 | 4.44 µM | 25.8 µM
30 | CC1OC2CC(=O)OC2C2=C1C(=O)c1c(O)c3c(c(O)c1C2=O)C1CC(O)C3(O)C(C)O1 (stereo not given) | 0.229 µM | 0.618 µM
31 | ClCc1c(Cl)c(Cl)c(Cl)c(CCl)c1Cl | 1.57 µM | 3.11 µM
32 | Cc1cc(C(C#N)c2ccc(Cl)cc2)c(Cl)cc1NC(=O)c1cc(I)cc(I)c1O (stereo not given) | 4.31 µM and 15.3 µM | 18 µM and 30 µM
33 | CC(C)(C)c1ccc(S(=O)(=O)N[C@H]2CC[C@H]3[C@@H]4CCc5cc(OS(=O)(=O)O)ccc5[C@H]4CC[C@]23C)cc1 | 2.05 µM | 5.59 µM
34 | CCCCN(Cc1ccc(F)cc1)c1ccc(CO)c(Cl)c1 | 0.167 µM | 0.449 µM
35 | CCN(Cc1ccccc1OC)c1ccc(CO)c(Cl)c1 | 0.0372 µM | 0.214 µM
36 | Nc1cc(N)c(N)cc1N | 1.8 µM | 4.48 µM
37 | COC(=O)CNC(=O)[C@@H](OC)[C@@H]1Cc2cc3cc(OC4CC(OC5CC(O)C(O)C(C)O5)C(O)C(C)O4)c(C)c(O)c3c(O)c2C(=O)[C@H]1OC1CC(OC2CC(OC3CC(C)(O)C(O)C(C)O3)C(O)C(C)O2)C(O)C(C)O1 (stereo not given in full) | 0.162 µM | 1.31 µM
38 | CC(=O)OCC1OC(n2ccc(=O)[nH]c2=O)C(OC(C)=O)C1OC(C)=O (stereo not given) | > 100 µM | > 100 µM
39 | CN(C)c1ccc(/C=C/C=C(/C#N)c2ccccc2)cc1 | 17.5 µM | 67.7 µM
40 | C=C1C(=O)O[C@H]2[C@H]1CC/C(COC(=O)N1CCC[C@H]1C(=O)Nc1ccc(OC)c(C(N)=O)c1O)=C\CC[C@@]1(C)O[C@@H]21 | 1.06 µM | 3.46 µM
